Like-named read-outs stand apart in the source and are kept apart here.
What was measured:
Assay in all cases: CellTiter-Glo, hematologic malignancy panel
Type in all cases: cell-based
MOLM13-Luc = settings: AML
Description: (§1) Identification of tumor types that are the most sensitive to the KSP inhibitors of the present invention can be accomplished using an unbiased approach that uses several cell-based assays. The assays chosen were as follows: • CellTiter-Glo®. This is an assay designed to measure ATP concentration in a cell culture, and can be correlated to cell number. Briefly CellTiter-Glo® (Promega Corporation) is a homogeneous method using the single CellTiter-Glo® reagent to detect ATP wherein ATP in the assay drives the activity of a thermostable luciferase to create a luminescent signal which can then be measured and correlated with the number of viable cells. Briefly, for adherent cells, 1,000 to 5,000 cells/well were plated in 96-well plates (100 μl/well) and let to adhere for 24 hours before being treated with drug. For non-adherent cells, 1,000 to 10,000 cells/well were plated in 96-well plates (100 μl/well) and immediately treated with drug. Drug dilutions were prepared in DMSO at 1000 times the final concentration. These dilutions were then diluted 1/100 in growth media before being added to the cells (11 μl/well) to achieve the desired final concentration. After 48 h in a 37° C. tissue culture incubator, the plates were processed for the CellTiter-Glo®assay according to the manufacturer's instructions. Protocol for a 72 hour cell proliferation assay: The 72 hour assay was performed the same way as the 48 hour assay except for the following modifications: For adherent cells, 500 to 5,000 cells/well were plated in 96-well plates (90 μl/well cell growth media) and left to adhere for 24 hours before being treated with drug. For non-adherent cells, 1,000 to 10,000 cells/well were plated in 96-well plates (90 μl/well cell growth media) and immediately treated with drug. Data values presented represent the concentration of test compound required for a 50% reduction in growth. • LDH release. The Cytotoxicity Detection KitPLUS (LDH) assay (Roche Diagnostics, Manheim, Germany) measures the amount of LDH released in the media by dying cells; LDH catalyzes the conversion of lactate into pyruvate. The enzymatic reaction is coupled to a chemical reaction that uses a tetrazolium salt to form a formazan that is red and can be detected by its absorbance at 490 nm. This assay measures the amount of cell death after drug treatment. Cells were plated at 10,000 cells/well in 96-well plates (100 μl/well). Adherent cells were let to adhere for 24 hours before being treated with drug, whereas non-adherent cells were immediately treated with drug. Drug dilutions were prepared in DMSO at 1000 times the final concentration. These dilutions were then diluted 1/100 in growth media before being added to the cells (11 μl/well) to achieve the desired final concentration. After 48 h in a 37° C. tissue culture incubator, the plates were processed for the Cytotoxicity Detection KitPLUS (LDH) assay according to the manufacturer's instructions. The media only values were subtracted from all the data points before analysis. Data values presented correspond to the compound concentration wherein LDH output is at half maximal level. • Caspase-Glo® 3/7. The Caspase-Glo® 3/7 Assay (Promega Corporation) is a homogeneous luminescent assay that measures caspase-3/7 activities. The assay provides a proluminescent caspase-3/7 DEVD-aminoluciferin substrate and a thermostable luciferase in a reagent optimized for caspase-3/7 activity, luciferase activity and cell lysis. Adding the single Caspase-Glo® 3/7 Reagent results in cell lysis, followed by caspase cleavage of the substrate. This liberates free aminoluciferin, which is consumed by the luciferase, generating a luminescent signal. The signal is proportional to caspase-3/7 activity. Data values presented correspond to the compound concentration wherein caspase 3/7 activity is at half maximal level. […]

CCRF-CEM = settings: ALL; for GI50: Homo sapiens
Description: as §1

RS4; 11 = settings: ALL; for GI50: Homo sapiens
Description: as §1

KM-H2 = settings: HL; for GI50: Homo sapiens
Description: as §1

RPMI-8226 = settings: MM; for GI50: Homo sapiens
Description: as §1

HEL92 = settings: AML
Description: as §1

LP1 = settings: for GI50: Homo sapiens, LP-1, MM
Description: as §1

HL60 = settings: for GI50: Homo sapiens, HL-60, AML
Description: as §1

H929 = settings: for GI50: Homo sapiens, NCI-H929, MM
Description: as §1

Karpas-299-Luc = settings: NHL
Description: as §1

KMS18-Luc = settings: MM
Description: as §1

H929-Luc = settings: MM
Description: as §1

HL60-Luc = settings: AML; for GI50: HL-60-Luc
Description: as §1

U937 = settings: for GI50: Homo sapiens, U-937, NHL
Description: as §1

AML-193 = system: AML-193
Description: as §1

SET-2 = settings: AML; for GI50: Homo sapiens
Description: as §1

[1] = GI50 in nM, read-out: Log(GI50) (converted)

`CC(C)(C)[C@H](c1nc(-c2cc(F)ccc2F)cn1Cc1ccccc1)N(CC[C@H](N)CF)C(=O)CO` [Compound IIa] was tested, and the “Differential vs mean Log(GI50)” value (MOLM13-Luc) was 0.175, the GI50 (MOLM13-Luc; [1]) was 0.226 nM and the GI50 (MOLM13-Luc; read-out: GI50) was 0.23 nM. For the same compound, the “Differential vs mean Log(GI50)” value (CCRF-CEM) was 0.315, the GI50 (CCRF-CEM; [1]) was 0.164 nM and the GI50 (CCRF-CEM; read-out: GI50) was 0.16 nM. For the same compound, the “Differential vs mean Log(GI50)” value (RS4; 11) was 0.530, the GI50 (RS4; 11; [1]) was 0.1 nM and the GI50 (RS4; 11; read-out: GI50) was 0.1 nM. For the same compound, the “Differential vs mean Log(GI50)” value (KM-H2) was 0.162, the GI50 (KM-H2; [1]) was 0.233 nM and the GI50 (KM-H2; read-out: GI50) was 0.23 nM. For the same compound, the GI50 (RPMI-8226; [1]) was 0.262 nM, the GI50 (RPMI-8226; read-out: GI50) was 0.26 nM and the “Differential vs mean Log(GI50)” value (RPMI-8226) was 0.112. For the same compound, the “Differential vs mean Log(GI50)” value (HEL92) was −0.160, the GI50 (HEL92; [1]) was 0.49 nM and the GI50 (HEL92; read-out: GI50) was 0.49 nM. The GI50 (LP1; [1]) was 0.205 nM, the GI50 (LP1; read-out: GI50) was 0.21 nM and the “Differential vs mean Log(GI50)” value (LP1; MM) was 0.218. The “Differential vs mean Log(GI50)” value (HL60; AML) was 0.313, the GI50 (HL60; [1]) was 0.165 nM and the GI50 (HL60; read-out: GI50) was 0.17 nM. For the same compound, the GI50 (H929; [1]) was 0.335 nM, the GI50 (H929; read-out: GI50) was 0.34 nM and the “Differential vs mean Log(GI50)” value (H929; MM) was 0.005. The “Differential vs mean Log(GI50)” value (Karpas-299-Luc) was −1.775, the GI50 (Karpas-299-Luc; [1]) was 20.2 nM and the GI50 (Karpas-299-Luc; read-out: GI50) was 20.2 nM. For the same compound, the “Differential vs mean Log(GI50)” value (KMS18-Luc) was −0.184, the GI50 (KMS18-Luc; [1]) was 0.518 nM and the GI50 (KMS18-Luc; read-out: GI50) was 0.52 nM. For the same compound, the “Differential vs mean Log(GI50)” value (H929-Luc) was −0.697, the GI50 (H929-Luc; [1]) was 1.69 nM and the GI50 (H929-Luc; read-out: GI50) was 1.69 nM. The “Differential vs mean Log(GI50)” value (HL60-Luc) was −0.173, the GI50 (HL60-Luc; [1]) was 0.505 nM and the GI50 (HL60-Luc; read-out: GI50) was 0.51 nM. The GI50 (U937; [1]) was 0.2 nM, the GI50 (U937; read-out: GI50) was 0.2 nM and the “Differential vs mean Log(GI50)” value (U937; NHL) was 0.229. The “Differential vs mean Log(GI50)” value (AML-193) was 0.489, the GI50 (AML-193; [1]) was 0.11 nM and the GI50 (AML-193; read-out: GI50) was 0.11 nM. For the same compound, the “Differential vs mean Log(GI50)” value (SET-2) was −0.001, the GI50 (SET-2; [1]) was 0.34 nM and the GI50 (SET-2; read-out: GI50) was 0.34 nM.

Source: patent publication US8252832B2, “Kinesin inhibitors as cancer therapeutics” (Novartis AG, priority 2007, dated 2012)
